From patent US20210380545A1, “(S)-ENANTIOMERIC FORM OF A HETEROCYCLIC COMPOUND HAVING MOTIVATION IMPROVING AND/OR REFERENCE MEMORY ENHANCING ACTIVITY” (Red Bull GmbH, priority 2018, published 2021)
Where two headings read alike, the source gives them in different places.

Key:
[1] = target: T1, human dopamine transporter (DAT) (Homo sapiens, UniProt Q01959); assay: Reuptake inhibition assay, [3H]-dopamine uptake in HEK-DAT cells; format: cell-based
T1 construct: expressed in transfected cells

[2] = test system: Adult male Sprague-Dawley rats; settings: for chow intake vs vehicle treatment / lever pressing vs vehicle treatment: TBZ 1.0 mg/kg plus vehicle vs vehicle/vehicle
Description: Rats were assessed using the fixed ratio 5/chow feeding choice test.
Adult male Sprague-Dawley rats (Envigo Sprague Dawley, Indianapolis, Ind., USA; weights 275-299 g upon arrival) were pair-housed in a colony maintained at 23° C., with a 12-h light/dark cycle (lights on 07:00). Rats were food deprived to 85% of their free-feeding body weight for operant training and allowed modest growth throughout the experiment. Water was available ad libitum in the home cages.
Behavioural sessions were conducted in operant chambers (28×23×23 cm3; Med Associates, Fairfax, Vt.) with 30 minute sessions 5 days/week. Rats were initially trained to lever press on a continuous reinforcement FR1 schedule (high-carbohydrate 45 mg pellets, Bio-Serv, Frenchtown, N.J.) and then shifted to the FR5 schedule. After 5 weeks of training on the FR5 schedule, chow was introduced. Weighed amounts of laboratory chow (Laboratory Diet, 5P00 Prolab RMH 3000, Purina Mills, St. Louis, Mo.; typically 15-20 g) were concurrently available on the floor of the chamber during the FR5/chow feeding choice task sessions. At the end of each 30 minute session, rats were immediately removed from the chambers, number of lever presses was recorded, and the amount of chow consumed was determined by weighing the remaining food (including spillage). Rats were trained on the FR5/chow feeding choice procedure for 5 weeks, after which drug testing began. On baseline and drug treatment days, rats consumed all of the operant pellets that were delivered during each session.
The DMSO/Tween 80/saline solution was administered as the vehicle control. TBZ was obtained from Tocris Bioscience (Ellisville, Mo.) and was dissolved in DMSO, 0.9% saline, and titrated with HCl. The DMSO/saline solution was administered as the vehicle control. The TBZ dose was 1.0 mg/kg.
The experiment used a within-groups design, with each rat receiving each drug treatment in a randomly varied order (one treatment per week, with none of the treatment sequences repeated across different animals).
Total number of lever presses and gram quantity of chow intake from the 30 minute sessions were analysed using repeated measures ANOVA. […] When there was a significant ANOVA, non-orthogonal planned comparisons were performed, using the overall error term to assess differences between each treatment and the control condition.

[3] = target: T2, human serotonin transporter (SERT) (Homo sapiens, UniProt P31645); assay: Reuptake inhibition assay, [3H]5-HT uptake in HEK-SERT cells; format: cell-based; settings: HEK293 cells expressing human SERT, 0.4 μM [3H]5-HT, 1 min
T2 construct: expressed in transfected cells
T2 sequence (P31645 whole entry): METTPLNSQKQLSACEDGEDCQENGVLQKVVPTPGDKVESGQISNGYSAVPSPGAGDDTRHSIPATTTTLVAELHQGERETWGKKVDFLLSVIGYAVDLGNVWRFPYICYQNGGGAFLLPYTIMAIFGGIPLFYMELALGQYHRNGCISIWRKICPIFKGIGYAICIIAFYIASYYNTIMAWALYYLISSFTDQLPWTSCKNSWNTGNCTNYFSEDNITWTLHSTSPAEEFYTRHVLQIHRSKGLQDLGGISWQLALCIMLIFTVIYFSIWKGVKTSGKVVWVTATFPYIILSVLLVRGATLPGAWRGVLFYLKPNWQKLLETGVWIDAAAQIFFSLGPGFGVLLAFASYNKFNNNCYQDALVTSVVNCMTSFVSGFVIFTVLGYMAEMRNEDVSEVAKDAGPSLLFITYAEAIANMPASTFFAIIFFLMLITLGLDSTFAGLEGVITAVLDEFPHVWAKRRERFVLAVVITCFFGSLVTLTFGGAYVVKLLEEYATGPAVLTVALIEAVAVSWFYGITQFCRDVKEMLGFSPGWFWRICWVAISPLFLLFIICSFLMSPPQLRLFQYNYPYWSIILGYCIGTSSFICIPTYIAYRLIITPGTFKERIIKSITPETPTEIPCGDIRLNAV

[4] = test system: Male Sprague-Dawley rats; assay: Holeboard test (reference memory index, RMI); format: in vivo, rat
Description: Male Sprague-Dawley rats (17 to 18 weeks and 22 to 23 months old), bred and maintained in the Core Unit of Biomedical Research, Division of Laboratory Animal Science and Genetics, Medical University of Vienna were used. The animals were transferred to a separate experimental room one week before the start of the experimental procedure and kept there throughout the experiment individually in standard Makrolon cages filled with autoclaved woodchips temperature: 22±2° C.; humidity: 55±5%; 12 h artificial light/12 h dark cycle: light on at 7:00 am). The study was carried out according to the guidelines of the Ethics committee, Medical University of Vienna, and were approved by the Federal Ministry of Education, Science and Culture, Austria.
The holeboard (1 m×1 m) was made of black plastic and was surrounded by translucent plexiglass walls. The walls were equipped with spatial cues. Distal cues were provided by room structures outside the board. Four out of sixteen regularly arranged holes (diameter and depth 7 cm) were baited (dustless precision pellets, 45 mg, Bioserv®). The pattern of baited holes remained the same during the entire test. To avoid olfactory orientation pellets were also present in an area below the board. Prior to the experiment for three days the rats were handled for 15 min to get familiarized to the experimenter, followed by two days of habituation to the hole-board during which the animals could explore the maze for 15 min each day with access to food pellets. The weight of each rat was reduced by food restriction to reach 85% of its initial body weight before the start of the experiment. Tap water was given ad libitum. Rats were trained for three days (five trials on day one, four trials on day 2 and a retention trial at day 3). Every trial lasted for 120 s or until all four pellets were found. The apparatus was cleaned with 0.1% Incidin® (Ecolab, Dusseldorf, Germany) between trials to remove odor cues. The interval between two successive trials for an individual was 20 min. A camera mounted on the room ceiling recorded the performance of the rats in the maze. […] To compare rats with similar levels of motivation, rats with less than 40-hole visits in total over the ten trials were excluded from the analysis. Reference memory errors were noted as the number of visits to the unbaited holes. The Reference Memory Index (RMI) was calculated using the formula (first+revisits of baited holes)/total visits of all holes. All behavioral training/testing was performed during the light phase of the light-dark cycle.

[5] = target: T3, human nor-epinephrine transporter (NET) (Homo sapiens, UniProt P23975); assay: Reuptake inhibition assay, [3H]MPP+ uptake in HEK-NET cells; format: cell-based; settings: HEK293 cells expressing human NET, 0.05 μM [3H]MPP+, 3 min
T3 construct: expressed in transfected cells
T3 sequence (P23975 whole entry): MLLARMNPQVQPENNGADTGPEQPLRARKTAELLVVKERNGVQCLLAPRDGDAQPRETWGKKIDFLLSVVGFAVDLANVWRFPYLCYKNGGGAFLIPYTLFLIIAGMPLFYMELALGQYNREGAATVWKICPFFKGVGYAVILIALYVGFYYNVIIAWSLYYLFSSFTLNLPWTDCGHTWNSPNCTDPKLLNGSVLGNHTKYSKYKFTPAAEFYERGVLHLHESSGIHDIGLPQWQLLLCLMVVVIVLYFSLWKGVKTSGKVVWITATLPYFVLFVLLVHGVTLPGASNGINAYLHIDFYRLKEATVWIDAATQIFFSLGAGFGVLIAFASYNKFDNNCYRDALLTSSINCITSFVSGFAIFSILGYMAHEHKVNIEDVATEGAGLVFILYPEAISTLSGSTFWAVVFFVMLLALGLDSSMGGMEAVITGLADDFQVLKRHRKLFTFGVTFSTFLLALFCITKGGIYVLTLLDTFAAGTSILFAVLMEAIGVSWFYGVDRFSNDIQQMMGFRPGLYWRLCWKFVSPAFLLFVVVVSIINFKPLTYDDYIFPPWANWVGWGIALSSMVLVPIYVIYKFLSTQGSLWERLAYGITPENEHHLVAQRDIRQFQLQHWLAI

[6] = HEK293 cells expressing human DAT, 0.2 μM [3H]-dopamine, 1 min, read-out: IC50, inhibition of DAT-mediated dopamine reuptake
[7] = p<0.001, listed as Tetrabenazine

T1 sequence (Q01959 whole entry): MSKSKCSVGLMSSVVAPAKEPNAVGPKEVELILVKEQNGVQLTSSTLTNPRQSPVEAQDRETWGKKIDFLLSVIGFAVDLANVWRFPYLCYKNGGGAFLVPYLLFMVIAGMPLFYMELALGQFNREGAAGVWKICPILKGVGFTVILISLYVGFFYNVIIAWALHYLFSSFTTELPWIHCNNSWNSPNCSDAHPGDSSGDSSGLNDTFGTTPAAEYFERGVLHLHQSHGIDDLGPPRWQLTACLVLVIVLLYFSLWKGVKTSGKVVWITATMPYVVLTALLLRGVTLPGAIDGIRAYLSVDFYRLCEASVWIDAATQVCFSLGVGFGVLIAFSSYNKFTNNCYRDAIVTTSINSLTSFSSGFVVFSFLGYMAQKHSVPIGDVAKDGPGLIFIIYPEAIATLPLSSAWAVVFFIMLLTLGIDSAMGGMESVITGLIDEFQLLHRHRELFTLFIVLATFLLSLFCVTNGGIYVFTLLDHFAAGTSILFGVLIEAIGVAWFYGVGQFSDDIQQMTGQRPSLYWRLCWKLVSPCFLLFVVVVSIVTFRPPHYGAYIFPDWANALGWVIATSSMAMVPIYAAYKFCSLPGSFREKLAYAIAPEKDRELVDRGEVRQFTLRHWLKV

## [O-][S+](Cc1cncs1)C(c1ccccc1)c1ccccc1 (racemic) [Compound C3, 5-(diphenylmethanesulfinylmethyl)-1,3-thiazole]
[1]; [6]
  IC50: 4.6 µM

## [O-][S@+](Cc1cncs1)C(c1ccccc1)c1ccccc1 [Compound C2, (R)-5-(diphenylmethanesulfinylmethyl)-1,3-thiazole]
[1]; [6]
  IC50: 22.3 µM

## COc1cc2c(cc1OC)C1CC(=O)C(CC(C)C)CN1CC2 (stereo not drawn) [TBZ, 9,10-dimethoxy-3-(2-methylpropyl)-1,3,4,6,7, 11b-hexahydrobenzo[a]quinolizin-2-one]
[2]; p<0.001
  chow intake vs vehicle treatment: significantly increased chow intake
  lever pressing vs vehicle treatment: significantly decreased lever pressing
[2]; [7]
  chow intake vs vehicle treatment: increased chow intake
  lever pressing vs vehicle treatment: decreased lever pressing

## [O-][S@@+](Cc1cncs1)C(c1ccccc1)c1ccccc1 [Compound C1, (S)-5((diphenylmethanesulfinyl)-methyl-1,3-thiazole)]
[3]
  inhibition of SERT: negligible
[1]
  IC50: 2.8 µM
[4]; old male rats (22 to 23 months), 10 mg/kg body weight, Tukey post hoc p=0.021
  Reference Memory Index (RMI) vs controls, entire training: significantly enhanced RMI
[4]; old male rats, 1 mg, p=0.357
  Reference Memory Index (RMI) vs controls, entire training: performed similar as compared to controls
[4]; old male rats, 5 mg, p=0.171
  Reference Memory Index (RMI) vs controls, entire training: performed similar as compared to controls
[4]; old male rats, 10 mg, day 1, p=0.032
  RMI vs vehicle, day 1: significantly enhanced RMI
[4]; old male rats, 10 mg, day 2, p<0.001
  RMI vs vehicle, day 2: significant treatment effect
[4]; old male rats, 10 mg, day 3, p=0.003
  RMI vs controls, retention trial at day 3: higher RMI
[2]; 24.0 mg/kg with TBZ 1.0 mg/kg vs TBZ/vehicle, 30 minute session, p<0.001
  effect on TBZ-induced increase of chow intake: significantly attenuated the effects of TBZ
[2]; 24.0 mg/kg with TBZ 1.0 mg/kg vs TBZ/vehicle, 30 minute session, p<0.01
  effect on TBZ-induced decrease of lever pressing: significantly attenuated the effects of TBZ
[2]; highest dose (24.0 mg/kg) co-administered with TBZ 1.0 mg/kg
  reversal of the effort-related effects of tetrabenazine: partially but significantly reversed the effects of tetrabenazine
[5]
  inhibition of NET: negligible
